Results from publication PMC11530593, “Structural mechanism of human HCN1 hyperpolarization-activated channel inhibition by ivabradine” (The Journal of Biological Chemistry, 2024).

Biological target: T1, WT hHCN1 (Homo sapiens, UniProt O60741)
T1 construct: Full-length WT or mutant human HCN1 were cloned into the pcDNA3.1 vector; expressed in transfected cells; host or cells: HeLa cells, pcDNA3.1 vector, transient lipofection
T1 sequence (O60741 1-890): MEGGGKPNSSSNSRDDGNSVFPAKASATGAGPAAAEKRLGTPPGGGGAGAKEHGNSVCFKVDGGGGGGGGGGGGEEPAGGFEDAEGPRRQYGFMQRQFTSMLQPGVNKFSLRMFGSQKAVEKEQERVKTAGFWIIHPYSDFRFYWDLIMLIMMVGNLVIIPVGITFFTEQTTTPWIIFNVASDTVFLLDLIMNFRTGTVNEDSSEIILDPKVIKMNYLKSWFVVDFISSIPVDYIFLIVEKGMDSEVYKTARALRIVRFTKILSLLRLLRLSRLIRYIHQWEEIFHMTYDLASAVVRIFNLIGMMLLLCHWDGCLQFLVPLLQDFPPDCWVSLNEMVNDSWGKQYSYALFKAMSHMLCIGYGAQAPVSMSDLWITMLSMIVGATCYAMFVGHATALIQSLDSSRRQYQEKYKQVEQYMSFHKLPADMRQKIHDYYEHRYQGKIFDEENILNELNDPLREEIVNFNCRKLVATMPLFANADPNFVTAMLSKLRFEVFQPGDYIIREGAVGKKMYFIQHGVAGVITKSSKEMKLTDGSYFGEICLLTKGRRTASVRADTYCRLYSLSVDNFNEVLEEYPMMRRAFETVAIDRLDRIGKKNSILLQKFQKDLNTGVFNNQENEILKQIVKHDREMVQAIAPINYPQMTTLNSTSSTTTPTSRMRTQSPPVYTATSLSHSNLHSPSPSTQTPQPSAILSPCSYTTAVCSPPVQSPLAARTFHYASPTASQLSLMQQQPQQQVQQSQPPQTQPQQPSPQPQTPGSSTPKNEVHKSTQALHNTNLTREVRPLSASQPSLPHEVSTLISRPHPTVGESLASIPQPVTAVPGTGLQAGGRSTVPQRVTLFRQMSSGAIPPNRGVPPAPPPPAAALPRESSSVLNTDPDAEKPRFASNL
Assay: Whole-cell patch-clamp, Ih inhibition in transfected HeLa cells
Assay type: cell-based
Conditions: membrane potential -140 mV, read-out: half-maximal inhibitory concentration (IC50) of Ih inhibition
Method: The electrophysiological characteristics of WT hHCN1 were recorded using whole-cell patch-clamp. […] Activation of the HCN1 channel occurred in response to membrane hyperpolarization.
Full-length WT or mutant human HCN1 were cloned into the pcDNA3.1 vector for electrophysiological experiments. HeLa cells (from Thermo Fisher Scientific) cultured in Dulbecco's modified Eagle's medium (from Solarbio Life Science) + 10% fetal bovine serum (from ExCell Bio) at 37 °C were transiently transfected using lipofection, and whole-cell patch-clamp recordings were obtained using the Axon 200B amplifier (Molecular Devices) and clampex software (https://www.moleculardevices.com/products/axon-patch-clamp-system/acquisition-and-analysis-software/pclamp-software-suite), 36 to 48 h posttransfection. The extracellular solution contained 110 mM NaCl, 0.5 mM MgCl2, 1.8 mM CaCl2, 5 mM Hepes, 30 mM KCl, and pH was adjusted to 7.4 with NaOH, while the pipette solution contained 130 mM KCl, 10 mM NaCl, 0.5 mM MgCl2, 1 mM EGTA, 5 mM Hepes, and pH was adjusted to 7.4 with KOH. The recordings were performed at room temperature, voltage-clamp mode, and filtered at 1 kHz. The sampling frequency was 10 kHz, and the series resistance was limited to 5 MΩ. To elicit channel currents, step pulses of 3 s duration ranging from −180 mV to −30 mV were applied, followed by a step to −180 mV lasting 1.25 s. The tail currents evoked by the second step were used to determine the voltage-dependent activation curves and calculate the midpoint of activation potential (V1/2). The half maximal inhibitory concentration (IC50) of drugs was determined by recording currents at a pulse of −140 mV and analyzing current amplitudes at varying drug concentrations. The IC50 value was calculated using the Hill equation.

An IC50 of 33.4 µM was found for `O=C(CCCN1CCC(O)(c2ccc(Cl)cc2)CC1)c1ccc(F)cc1` [haloperidol] in this work.
